The test system of one data set is E. coli. The arrangement: method as in PMID 22864735. Conditions: compound isolated from Zanthoxylum rhetsa roots; cited from earlier work.
Data set [1] deals with Escherichia coli (ATCC 25922). The experiment in a line: Broth dilution MIC against E. coli. Conditions: for MIC: Escherichia coli, read-out: Antimicrobial minimal inhibition concentration (MIC), E. coli. The data set is classed as cell-based.
In data set [2] the test system is Staphylococcus aureus (ATCC 29213). The data set is described as follows: Broth dilution MIC against S. aureus. The data set is classed as cell-based. Conditions: for MIC: Staphylococcus aureus, ATCC29213, 24 h, read-out: Antimicrobial minimal inhibition concentration (MIC), S. aureus.
Another data set concerns MRSA. Further details: method as in PMID 22864735. Conditions: compound isolated from Zanthoxylum rhetsa roots; cited from earlier work.
Data set [3] is described as follows: MTT cytotoxicity assay, normal cell line. Conditions: African green monkey.
Data set [4] concerns methicillin resistant Staphylococcus aureus (MRSA), un-typed isolate. The experiment in a line: Broth dilution MIC against MRSA. Format: cell-based. Conditions: for MIC: Staphylococcus aureus, MRSA, read-out: Antimicrobial minimal inhibition concentration (MIC), MRSA; for MIC / Antimicrobial minimal inhibition concentration (MIC), MRSA: 24 h; for Growth inhibition of MRSA (in words): up to 1000 µg/mL. (In general: Dilution methods test growth across graded concentrations, often in twofold steps.)

For data set [5], the system named is human breast cancer cell line (HCC 1395). The data set is described as follows: MTT antiproliferative assay, breast cancer cells. The data set is classed as cell-based. Conditions: for IC50: Homo sapiens; for Selectivity Indexes HCC 1395: SI = CC50 (Vero E6) / IC50 (HCC 1395). Background: Tetrazolium assays rely on reduction of a dye to a coloured formazan, in cell work by metabolically active cells.

Data set [6] relates to Candida albicans (ATCC 10231). The data set is described as follows: Broth dilution MIC against C. albicans. Format: cell-based. Conditions: for MIC: Candida albicans, read-out: Antimicrobial minimal inhibition concentration (MIC), C. albicans; for Growth inhibition of C. albicans (in words): up to 1000 µg/mL.
Data set [7] has as its system human prostate cancer cell line (DU 145). The experiment in a line: MTT antiproliferative assay, prostate cancer cells. Conditions: for IC50: Homo sapiens; for Selectivity Indexes DU 145: SI = CC50 (Vero E6) / IC50 (DU 145). The data set is classed as cell-based.
The next data set deals with Streptococcus pyogenes. Further details: method as in PMID 25546028. Conditions: cited from earlier work.
The next data set has as its system Clostridium sporogenes. Further details: method as in PMID 25546028. Conditions: cited from earlier work.
A further data set in a line: in vitro. Conditions: African green monkey.
Setting [8] is: ATCC25922, ATCC 25922, broth two-fold dilution, 37 °C, 24 h.
Setting [9] is: ATCC 29213, broth two-fold dilution, 37 °C, 24 h.
Setting [10] is: HCC1395, MTT assay, Mean ± SEM, triplicate, read-out: IC50 Cancerous Cell Lines HCC 1395.
Setting [11] is: ATCC10231, ATCC 10231, broth two-fold dilution, 30 °C, 72 h.
Setting [12] is: DU-145, MTT assay, Mean ± SEM, triplicate, read-out: IC50 Cancerous Cell Lines DU 145.
[13] abbreviates: Vero E6 cells (normal cell line).

≈ marks a conversion by molar mass, not a printed value. Where two headings read alike, the source gives them in different places.

As for `COc1ccc2c(c1OC)C(CC(C)=O)N(C)c1c-2ccc2cc3c(cc12)OCO3` (centres unmarked) [8-acetonyldihydrochelerythrine (4), 8-acetonyldihydrochelerythrine], in the data set with E. coli, the “MIC against E. coli” value is 16 µg/mL (≈ 39.5 µM). In addition, the MIC in data set [1] (setting [8]) was 15.6 µg/mL (≈ 38.5 µM); in [2] (setting [9]) it was 15.6 µg/mL (≈ 38.5 µM); in data set [4], 31.2 µg/mL (≈ 77.1 µM); in data set [6] (setting [11]) it was 62.5 µg/mL (≈ 154 µM). Besides, the “MIC against MRSA” value in the data set on MRSA was 8 µg/mL (≈ 19.7 µM). In addition, the CC50 at 48 h in data set [3] turned out to be 47.8 ± 1.15 µg/mL (≈ 118 µM). The 50% inhibitory concentration (IC50) in data set [5] (setting [10]) is 9.99 ± 0.6 µg/mL (≈ 24.6 µM); in data set [7] (setting [12]), 66.82 ± 0.58 µg/mL (≈ 165 µM). In addition, the “Selectivity Indexes HCC 1395” value in data set [5] is 4.79. Besides, in data set [7], the “Selectivity Indexes DU 145” value is reported as 0.72.

Consider `COc1ccc2c(c1OC)c(=O)n(C)c1c3cc4c(cc3ccc21)OCO4` [8-oxochelerythrine (8), 8-oxochelerythrine], for which the “MIC against Streptococcus pyogenes” value in the data set on Streptococcus pyogenes is 3.64 µM (≈ 1.32 µg/mL). Also, the MIC came to 3.91 µg/mL (≈ 10.8 µM) in [1] (setting [8]); 62.5 µg/mL (≈ 172 µM) in [4] (broth two-fold dilution, 37 °C); 15.6 µg/mL (≈ 43 µM) in data set [6] (setting [11]). The same molecule registered a CC50 at 48 h in [3] (setting [13]) of 135.32 ± 0.12 µg/mL (≈ 372 µM). For the same molecule, the “MIC against Clostridium sporogenes” value in the data set with Clostridium sporogenes was 0.91 µM (≈ 0.331 µg/mL). Further, the “Antimicrobial minimal inhibition concentration (MIC), MRSA” value in data set [4] (broth two-fold dilution, 37 °C) is 62.50 µg/mL. Further, the values for the 50% inhibitory concentration (IC50) in data set [5] (setting [10]) and in [7] (setting [12]) were 14.1 ± 0.3 µg/mL (≈ 38.8 µM) and 63.4 ± 1.1 µg/mL (≈ 175 µM), respectively. The “Selectivity Indexes HCC 1395” value in data set [5] worked out at 9.60. Moreover, the “Selectivity Indexes DU 145” value in data set [7] amounted to 2.13.

With `COc1ccc2c(c1)c1ccnc3ccc(=O)n2c31` [10-methoxycanthin-6-one (6), 10-methoxycanthin-6-one], the MIC in [1] (setting [8]) is 3.91 µg/mL (≈ 15.6 µM); in data set [2] (setting [9]) it was 1.95 µg/mL (≈ 7.79 µM); in [4] (broth two-fold dilution, 37 °C) it was 3.91 µg/mL (≈ 15.6 µM); in [6] (setting [11]), 7.81 µg/mL (≈ 31.2 µM). This molecule registered a CC50 at 48 h in data set [3] (setting [13]) of 53.95 ± 0.38 µg/mL (≈ 216 µM). Moreover, the IC50 in data set [5] (setting [10]) came to 14.7 ± 0.5 µg/mL (≈ 58.7 µM); in data set [7] (setting [12]) it was 1.58 µg/mL (≈ 6.31 µM). Also, the “Selectivity Indexes HCC 1395” value in data set [5] is given as 3.67. In addition, the “Selectivity Indexes DU 145” value in [7] was 34.15.

In the case of `COc1cccc2c1C(=O)c1c(O)c3c(c(O)c1C2=O)C[C@@](O)(C(=O)CO)C[C@@H]3O[C@H]1C[C@H](N)[C@H](O)[C@H](C)O1` [Doxorubicin, reference compound], the half-maximal inhibitory concentration (IC50) in data set [5] (setting [10]) was 0.21 ± 0.2 µg/mL (≈ 0.386 µM); in data set [7] (setting [12]), 0.59 ± 0.01 µg/mL (≈ 1.09 µM). In addition, the “Selectivity Indexes HCC 1395” value in data set [5] is listed as 1.41. The same molecule gave a CC50 at 48 h in the data set “in vitro” of 0.3 ± 0.12 µg/mL (≈ 0.552 µM). Also, the “Selectivity Indexes DU 145” value in [7] is listed as 0.51.

For `OC(Cn1cncn1)(Cn1cncn1)c1ccc(F)cc1F` [Fluconazole, reference compound], the MIC in [6] (setting [11]) came out at 1.95 µg/mL (≈ 6.37 µM).

For the molecule `O=c1ccc2nccc3c4ccccc4n1c23` [canthin-6-one (7), canthin-6-one], the MIC worked out at 1.95 µg/mL (≈ 8.85 µM) in [1] (setting [8]); 0.48 µg/mL (≈ 2.18 µM) in data set [2] (setting [9]); 0.97 µg/mL (≈ 4.4 µM) in data set [4] (broth two-fold dilution, 37 °C); 3.91 µg/mL (≈ 17.8 µM) in [6] (setting [11]). Besides, in data set [2] (setting [9]), the “Antimicrobial minimal inhibition concentration (MIC), S. aureus” value came out at 0.49 µg/mL. Moreover, the CC50 at 48 h in data set [3] (setting [13]) is 41.8 ± 0.64 µg/mL (≈ 190 µM). For the same molecule, the “Antimicrobial minimal inhibition concentration (MIC), MRSA” value in data set [4] (broth two-fold dilution, 37 °C) was found to be 0.98 µg/mL. The results for the IC50 in [5] (setting [10]) and in data set [7] (setting [12]) were 8.12 ± 0.6 µg/mL (≈ 36.9 µM) and 9.43 ± 0.01 µg/mL (≈ 42.8 µM), respectively. In addition, in [5], the “Selectivity Indexes HCC 1395” value came out at 5.15. For the same molecule, the “Selectivity Indexes DU 145” value in data set [7] is 4.43.

`CCCCCCCCCCCCCC(=O)O` [myristic acid (1), myristic acid]: the MIC was over 1000 µg/mL in data set [1] (setting [8]); over 1000 µg/mL in data set [2] (setting [9]); over 1000 µg/mL in data set [4] (broth two-fold dilution, 37 °C); over 1000 µg/mL in [6] (setting [11]). For the same molecule, the CC50 at 48 h in data set [3] (setting [13]) was 64.86 ± 0.51 µg/mL (≈ 284 µM). The values for the IC50 in [5] (setting [10]) and in data set [7] (setting [12]) were 57.7 ± 1.2 µg/mL (≈ 253 µM) and 80.24 ± 0.12 µg/mL (≈ 351 µM), respectively. In [5], the “Selectivity Indexes HCC 1395” value is reported as 1.12. Moreover, the “Selectivity Indexes DU 145” value in data set [7] amounted to 0.81.

For `c1cc2c(cc1[C@H]1OC[C@H]3[C@@H]1CO[C@@H]3c1ccc3c(c1)OCO3)OCO2` [sesamin (3), sesamin], the MIC was over 1000 µg/mL in data set [1] (setting [8]); 500 µg/mL (≈ 1410 µM) in [2] (setting [9]); over 1000 µg/mL in data set [4] (broth two-fold dilution, 37 °C); over 1000 µg/mL in data set [6] (setting [11]). For the same molecule, the “Growth inhibition of E. coli (in words)” value in data set [1] (up to 1000 µg/mL) is “no activity”. The “Growth inhibition of MRSA (in words)” value in data set [4] is listed as “no activity”. Besides, the IC50 in [5] (setting [10]) worked out at 3.39 ± 1 µg/mL (≈ 9.57 µM); in [7] (setting [12]), 115.06 ± 0.03 µg/mL (≈ 325 µM). The “Selectivity Indexes HCC 1395” value in data set [5] turned out to be 39.97. The “Growth inhibition of C. albicans (in words)” value in data set [6] is reported as “no activity”. In addition, in the data set “in vitro”, the CC50 at 48 h was 135.31 ± 0.12 µg/mL (≈ 382 µM). Moreover, the “Selectivity Indexes DU 145” value in [7] is on record as 1.18.

Turning to `CC[C@H](/C=C/[C@@H](C)[C@H]1CC[C@H]2[C@@H]3CC=C4C[C@@H](O)CC[C@]4(C)[C@H]3CC[C@]12C)C(C)C` [stigmasterol (2), stigmasterol], the MIC in data set [1] (ATCC25922, 24 h) is 15.6 µg/mL (≈ 37.9 µM); in data set [2] it was 62.5 µg/mL (≈ 151 µM); in data set [4] it was over 1000 µg/mL; in [6] (ATCC10231, 72 h) it was over 1000 µg/mL. Further, the CC50 at 48 h in [3] was 124 µg/mL (≈ 300 µM). In addition, the “Growth inhibition of MRSA (in words)” value in [4] is recorded as “did not inhibit the growth”. Moreover, the IC50 in data set [5] (HCC1395, read-out: IC50 Cancerous Cell Lines HCC 1395) turned out to be 0.42 ± 0.1 µg/mL (≈ 1.02 µM); in data set [7] (DU-145, read-out: IC50 Cancerous Cell Lines DU 145), 140.5 ± 1.27 µg/mL (≈ 340 µM). In data set [5], the “Selectivity Indexes HCC 1395” value was determined as 294.94. In data set [6], the “Growth inhibition of C. albicans (in words)” value is given as “did not inhibit the growth”. In data set [7], the “Selectivity Indexes DU 145” value is 0.88.

On to Omacilin [reference compound], for which the “Antimicrobial minimal inhibition concentration (MIC), E. coli” value in data set [1] (ATCC 25922, broth two-fold dilution, 37 °C, 24 h) is 0.98 µg/mL. Also, the “Antimicrobial minimal inhibition concentration (MIC), S. aureus” value in data set [2] (setting [9]) was 0.49 µg/mL. Further, the “Antimicrobial minimal inhibition concentration (MIC), MRSA” value in data set [4] (broth two-fold dilution, 37 °C) was determined as 0.98 µg/mL.

For orientation: IC50 means the concentration needed to halve the response being measured.

The record behind these values is publication PMC7412065, “In Vitro Antimicrobial and Antiproliferative Activities of the Root Bark Extract and Isolated Chemical Constituents of Zanthoxylum paracanthum Kokwaro (Rutaceae)” (Plants, 2020).
